{"source": "patent US20050059610A1", "about": "(priority 2003, published 2005)", "key": {"serum HSP 70": {"tested_on": "serum HSP 70", "assay": "Serum HSP-70 levels in critically ill patients (surgical ICU), GLN vs control", "format": "in vivo, human", "conditions": "for Baseline HSP-70 / LN(Baseline HSP-70): before treatment"}, "[1]": {"tested_on": "myocardial tissue metabolism", "assay": "Rat working heart model, myocardial tissue metabolism by 1H-/31P-MRS", "format": "in vivo", "method": "The tissue was analyzed for ATP, ADP, and ATP/ADP ratio via ^31P-magnetic resonance spectroscopy (MRS) and for creatine/phosphocreatine content via ^1H-magnetic resonance spectroscopy (MRS). […] The tissue was analyzed for lactate content via ^1H-MRS. […] Glutamine pretreatment enhances myocardial tissue content (glutamine, glutamate, and glucose) content following myocardial I/R injury in the rat. […] Glutamate is a vital tissue substrate following myocardial injury and it is beneficial that a single dose of […]/R injury can preserve tissue levels of this key substrate following injury. […] This key finding confirms that it is possible to enhance myocardial tissue substrate content (particularly glutamate) with a (pre-operative) remote GLN pre-treatment dose. […] Substrates were analyzed via ^1H-MRS. […] The tissue was analyzed for myocardial tissue reduced glutathione content via ^1H-magnetic resonance spectroscopy (MRS). […] Glutamine pretreatment preserves myocardial NAD (+)/NADH content following myocardial I/R injury in the rat. […] The tissue was analyzed for NAD (+)/NADH content via ^31P-magnetic resonance spectroscopy (MRS). […] NAD(+)/NADH was analyzed via […]. (**-p<0.01 versus pre-ischemic values, ##-p<0.01 versus post-ischemic LR control tissue via ANOVA.)"}, "[2]": {"tested_on": "polymicrobial sepsis (2CLP)", "assay": "Cecal-ligation and double-puncture (2CLP) sepsis: survival, cytokines, lung HSP 72", "format": "in vivo, Sprague-Dawley rats", "from_the_text": "Further, increased Interleukin-18 (IL-18) levels appear to play a critical role in cytokine-induced organ failure and can be predictive of mortality in sepsis patients.\nIncreased Interleukin-18 (IL-18) levels appear to play a critical role in cytokine-induced organ failure and can be predictive of mortality in sepsis patients."}, "experimental SIRS (CLP)": {"tested_on": "experimental SIRS (CLP)", "assay": "Serum HSP72 (ELISA) and survival after CLP (experimental SIRS)", "format": "in vivo, Sprague-Dawley rats"}, "[3]": {"tested_on": "polymicrobial sepsis and peritonitis (CLP)", "assay": "CLP peritonitis/polymicrobial sepsis, GLN 30 minutes after induction, with or without quercetin", "format": "in vivo, rat", "from_the_text": "Cecal ligation and puncture (CLP) in the rat was chosen as the appropriate model."}, "[4]": {"conditions": "non-pancreatic diagnoses, n = 7"}, "[5]": {"conditions": "GLN 30 minutes after induction of peritonitis and sepsis"}}, "note": "“Also recorded” adds a separate entry of the source.", "data": [{"smiles": "NC(=O)CC[C@H](N)C(=O)O", "note": "[GLN, Glutamine]", "values": [{"measurement": "HSP-70 levels at 1-week, higher than control patients by", "setting": "serum HSP 70; 95% CI −0.01 to 5.64, p=0.050", "result": 2.82, "unit": "units"}, {"measurement": "change in HSP-70 levels from baseline to 1-week, greater than control patients by", "setting": "serum HSP 70; 95% CI −0.09 to 5.29, p=0.057", "result": 2.60, "unit": "units"}, {"measurement": "1-week HSP-70", "setting": "serum HSP 70; all diagnoses, n = 15", "result": "4.09 ± 4.70"}, {"measurement": "HSP-70 change from baseline", "setting": "serum HSP 70; all diagnoses, n = 15", "result": "3.48 ± 4.53"}, {"measurement": "LN(1-week HSP-70)", "setting": "serum HSP 70; all diagnoses, n = 15", "result": "0.56 ± 1.63"}, {"measurement": "LN(1-wk HSP/Baseline HSP)", "setting": "serum HSP 70; all diagnoses, n = 15", "result": "1.93 ± 1.23"}, {"measurement": "Baseline HSP-70", "setting": "serum HSP 70; all diagnoses, n = 15", "result": "0.61 ± 1.05"}, {"measurement": "LN(Baseline HSP-70)", "setting": "serum HSP 70; all diagnoses, n = 15", "result": "−1.37 ± 1.26"}, {"measurement": "enhancement of serum HSP levels versus iso-nitrogenous control solution", "setting": "serum HSP 70; intravenous GLN, mixed critically ill patients, surgical ICU", "result": "four-fold enhancement"}, {"measurement": "1-week HSP-70", "setting": "serum HSP 70; [4]", "result": "3.43 ± 5.17"}, {"measurement": "HSP-70 change from baseline", "setting": "serum HSP 70; [4]", "result": "2.60 ± 4.77"}, {"measurement": "LN(1-week HSP-70)", "setting": "serum HSP 70; [4]", "result": "0.20 ± 1.70"}, {"measurement": "LN(1-wk HSP/Baseline HSP)", "setting": "serum HSP 70; [4]", "result": "1.63 ± 1.21"}, {"measurement": "Baseline HSP-70", "setting": "serum HSP 70; [4]", "result": "0.83 ± 1.48"}, {"measurement": "LN(Baseline HSP-70)", "setting": "serum HSP 70; [4]", "result": "−1.43 ± 1.58"}, {"measurement": "total ATP content following I/R injury", "setting": "[1]; 0.52 g/kg GLN 18 hours prior, vs control", "result": "improved"}, {"measurement": "accumulation of myocardial lactate following I/R injury", "setting": "[1]; GLN 18 hours prior", "result": "significant decrease; also recorded: decreased"}, {"measurement": "myocardial tissue content of glutamine and glucose following I/R injury versus LR control", "setting": "[1]; GLN 18 hours prior, 1H-MRS", "result": "enhanced"}, {"measurement": "myocardial tissue creatine/phosphocreatine content following I/R injury", "setting": "[1]; GLN 18 hours prior, 1H-MRS", "result": "enhanced"}, {"measurement": "myocardial tissue reduced glutathione content following I/R injury", "setting": "[1]; GLN 18 hours prior, 1H-MRS", "result": "marked enhancement; also recorded: improved"}, {"measurement": "post-ischemic glutamate levels versus pre-ischemic levels", "setting": "[1]; GLN 18 hours prior, 1H-MRS", "result": "no decrease"}, {"measurement": "myocardial NAD(+)/NADH content following I/R injury", "setting": "[1]; GLN 18 hours prior, MRS", "result": "significant preservation; also recorded: improved"}, {"measurement": "reduction of the increase in tissue lactate versus control animals", "setting": "[1]; GLN 18 hours prior, post I/R, 1H-MRS", "result": "> 55", "unit": "%"}, {"measurement": "expression of IL-18", "setting": "[2]; 12, 18, and 24 hours post-2CLP", "result": "significantly attenuated"}, {"measurement": "expression of IL-6", "setting": "[2]; 6 hours post-2CLP", "result": "attenuated"}, {"measurement": "expression of TNF-α", "setting": "[2]; 6 hours post-2CLP", "result": "attenuated"}, {"measurement": "lung HSP 72 expression versus control", "setting": "[2]; following 2CLP", "result": "enhanced"}, {"measurement": "5-day mortality rate following 2CLP", "setting": "[2]; single dose GLN 0.75 g/Kg one hour following surgery, control 78%", "result": 42, "unit": "%"}, {"measurement": "survival following experimental SIRS", "setting": "experimental SIRS (CLP); 5 days, BSS 18%", "result": 61, "unit": "%"}, {"measurement": "sHSP72 vs. BSS (ELISA)", "setting": "experimental SIRS (CLP); GLN (given as ALA-GLN) 0.75 g/Kg 1 hour post-CLP, 6 hours post-CLP", "result": "significantly enhanced"}, {"measurement": "serum HSP 70 expression", "setting": "[3]; CLP model, rat", "result": "markedly enhanced; also recorded: approximate four-fold increase"}, {"measurement": "deficient lung HSP 70 expression", "setting": "[3]; [5]", "result": "markedly enhanced"}, {"measurement": "lung HSF-1 activation", "setting": "[3]; [5]", "result": "markedly enhanced"}, {"measurement": "NAD+/NADH levels in lung tissue", "setting": "[3]; following sepsis and peritonitis", "result": "nearly doubling"}, {"measurement": "survival following peritonitis and polymicrobial sepsis", "setting": "[3]; rat, in vivo", "result": "significantly improve survival; also recorded: doubling of survival"}]}]}
